Results reported in patent publication US9662327B2 (AGIOS PHARMACEUTICALS, INC, priority 2011, dated 2017).

Target: IDH1 R132H (Homo sapiens (Human), UniProt O75874, R132H)
Test: Assays for IDH1 R132H Inhibitors (NADPH/aKG, resazurin detection)
Type: biochemical
Conditions: IDH1 R132H enzyme, Table 2; read-out: IDHR132H Activity
Outline: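 Substrate mix held 8 uM NADPH plus 2 mM aKG; buffer was 20 mM Tris pH 7.5 with 150 mM NaCl, 10 mM MgCl2, 0.03% BSA. After 50 min room-temperature reaction, NADPH remaining was detected with 30 μM resazurin mix over 5 min.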

IDH1 R132H, sequence (O75874 whole entry R132H): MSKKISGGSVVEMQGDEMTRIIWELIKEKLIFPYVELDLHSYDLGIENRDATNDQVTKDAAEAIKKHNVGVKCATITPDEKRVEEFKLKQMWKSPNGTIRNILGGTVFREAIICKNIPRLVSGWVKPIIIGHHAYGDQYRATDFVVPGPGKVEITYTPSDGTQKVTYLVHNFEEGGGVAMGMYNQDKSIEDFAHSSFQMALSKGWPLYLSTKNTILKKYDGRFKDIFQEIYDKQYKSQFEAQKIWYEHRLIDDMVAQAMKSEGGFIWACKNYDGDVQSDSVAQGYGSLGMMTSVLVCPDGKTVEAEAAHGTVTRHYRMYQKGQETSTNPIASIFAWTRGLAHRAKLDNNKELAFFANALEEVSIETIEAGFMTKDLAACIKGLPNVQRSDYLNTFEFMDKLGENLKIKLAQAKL

Row | SMILES | IC50
1 | CC(C)[C@@H]1CN(c2nc(C3CC3)c3c(c2C#N)CC(C)(C)OC3)CCN1C(=O)Cn1ncc2ccccc21 [Compound 405, (R)-6-(4-(2-(1H-indazol-1-yl)acetyl)-3-isopropylpiperazin-1-yl)-8-cyclopropyl-3,3-dimethyl-3,4-dihydro-1H-pyrano[3,4-c]pyridine-5-carbonitrile] | 1 to 10 µM
2 | CC(C)[C@@H]1CN(c2nc(C3CC3)c3c(c2C#N)CC(C)(C)OC3)CCN1C(=O)Cn1nccn1 [Compound 407, (R)-6-(4-(2-(2H-1,2,3-triazol-2-yl)acetyl)-3-isopropylpiperazin-1-yl)-8-cyclopropyl-3,3-dimethyl-3,4-dihydro-1H-pyrano[3,4-c]pyridine-5-carbonitrile] | 0.5 to 1 µM
3 | CC(C)[C@@H]1CN(c2nc(C3CC3)c3c(c2C#N)CC(C)(C)OC3)CCN1C(=O)Cn1ccnn1 [Compound 408, (R)-6-(4-(2-(1H-1,2,3-triazol-1-yl)acetyl)-3-isopropylpiperazin-1-yl)-8-cyclopropyl-3,3-dimethyl-3,4-dihydro-1H-pyrano[3,4-c]pyridine-5-carbonitrile] | 1 to 10 µM
4 | CCOC(=O)[C@H]1CN(c2nc(C(C)C)c3c(c2C#N)CC(C)(C)OC3)CCN1C(=O)c1ccoc1 [Compound 410] | 0.5 to 1 µM
5 | CC(C)[C@@H]1CN(c2nc(C3CC3)c3c(c2C#N)CC(C)(C)OC3)CCN1C(=O)CCC(=O)O [Compound 416, (R)-4-(4-(5-cyano-8-cyclopropyl-3,3-dimethyl-3,4-dihydro-1H-pyrano[3,4-c]pyridin-6-yl)-2-isopropylpiperazin-1-yl)-4-oxobutanoic acid] | 1 to 10 µM

Continued, values first:

Row | IC50 | SMILES
6 | 1 to 10 µM | CC(C)[C@@H]1CN(c2nc(C3CC3)c3c(c2C#N)CC(C)(C)OC3)CCN1C(=O)Cn1ccc2ccccc21 [Compound 406, (R)-6-(4-(2-(1H-indol-1-yl)acetyl)-3-isopropylpiperazin-1-yl)-8-cyclopropyl-3,3-dimethyl-3,4-dihydro-1H-pyrano[3,4-c]pyridine-5-carbonitrile]
7 | < 0.5 µM | COC(=O)CC(=O)N1CCN(c2nc(C3CC3)c3c(c2C#N)CC(C)(C)OC3)C[C@H]1C(C)C [Compound 409, (R)-methyl 3-(4-(5-cyano-8-cyclopropyl-3,3-dimethyl-3,4-dihydro-1H-pyrano[3,4-c]pyridin-6-yl)-2-isopropylpiperazin-1-yl)-3-oxopropanoate]
8 | 0.5 to 1 µM | CCOC(=O)[C@@H]1CN(c2nc(C(C)C)c3c(c2C#N)CC(C)(C)OC3)CCN1C(=O)c1ccoc1 [Compound 411]
9 | < 0.5 µM | COC(=O)CCC(=O)N1CCN(c2nc(C3CC3)c3c(c2C#N)CC(C)(C)OC3)C[C@H]1C(C)C [Compound 412, (R)-methyl 4-(4-(5-cyano-8-cyclopropyl-3,3-dimethyl-3,4-dihydro-1H-pyrano[3,4-c]pyridin-6-yl)-2-isopropylpiperazin-1-yl)-4-oxobutanoate]
10 | < 0.5 µM | CCc1nc(N2CCN(C(=O)CCOC)[C@H](C(C)C)C2)c(C#N)c2c1COC(C)(C)C2 [Compound 413, (R)-8-ethyl-6-(3-isopropyl-4-(3-methoxypropanoyl)piperazin-1-yl)-3,3-dimethyl-3,4-dihydro-1H-pyrano[3,4-c]pyridine-5-carbonitrile]
11 | 1 to 10 µM | CCc1nc(N2CCN(C(=O)c3ccoc3)[C@H](C(C)C)C2)c(C#N)c2c1COC(C)(C)C2 [Compound 414, (R)-8-ethyl-6-(4-(furan-3-carbonyl)-3-isopropylpiperazin-1-yl)-3,3-dimethyl-3,4-dihydro-1H-pyrano[3,4-c]pyridine-5-carbonitrile]
12 | 0.5 to 1 µM | CC(C)[C@@H]1CN(c2nc(C3CC3)c3c(c2C#N)CC(C)(C)OC3)CCN1C(=O)Cn1cc(Br)cn1 [Compound 415, (R)-6-(4-(2-(4-bromo-1H-pyrazol-1-yl)acetyl)-3-isopropylpiperazin-1-yl)-8-cyclopropyl-3,3-dimethyl-3,4-dihydro-1H-pyrano[3,4-c]pyridine-5-carbonitrile]
